The test has as its system Plasmodium berghei. The test is described as follows: Luciferase/luciferin-expressing antifolate-resistant parasites were used to infect a culture of HepG2 cells that were pre-incubated with compounds. Infected hepatocytes emit light due to the luciferase reaction. Assay results are presented as the percent inhibition of light emission compared to control. […]. It is filed as functional. As to conditions: sporozoite; for IC90: read-out: LUCIFERASE INFECTION ASSAY - IC90.

[1] abbreviates: read-out: LUCIFERASE INFECTION ASSAY - IC50.

As to `Oc1ccc(-c2cn3c(-c4ccc(Cl)cc4)cnc3cn2)cc1`, the IC90 (commonly the concentration at which the effect reaches the 90% level) amounted to 5.63 µM. The concentration for half-maximal inhibition (IC50) (in general, the midpoint of a concentration-inhibition curve) (HEPG2TOX_HILL_SLOPE 7.91, HEPG2TOX_R_SQUARED 0.667, PBLUC_HILL_SLOPE 4.16, PBLUC_R_SQUARED 0.739, read-out: LUCIFERASE INFECTION ASSAY - IC50) is 3.32 µM.

As for `Cc1c(/C=N/NC(=O)c2ccccc2)c(Cl)n(C)c(=O)c1C#N`, the IC90 is over 10 µM. The IC50 under setting [1] is over 10 µM.

In the case of `CCN(CC)S(=O)(=O)c1cc(C(=O)c2c(-c3ccc(Cl)cc3)cc3ccccn23)ccc1F`, the IC90 is over 10 µM. Moreover, the IC50 (HEPG2TOX_HILL_SLOPE 0.422, HEPG2TOX_R_SQUARED 0.219, read-out: LUCIFERASE INFECTION ASSAY - IC50) is over 10 µM.

With `O=C(NNC(=O)c1cnc2ccccn2c1=O)c1cc(Cl)ccc1O`, the IC90 was 4.25 µM. Where the note is “HEPG2TOX_HILL_SLOPE 14.4, HEPG2TOX_R_SQUARED 0.595, PBLUC_HILL_SLOPE 11.5, PBLUC_R_SQUARED 0.377, read-out: LUCIFERASE INFECTION ASSAY - IC50”, the IC50 amounted to 3.51 µM.

With `COc1ccc(C2(c3ccc(OC)cc3)NC(=O)N(CC(=O)c3cc(C)n(C4CC4)c3C)C2=O)cc1`, the IC90 was over 10 µM. In addition, the IC50 (PBLUC_HILL_SLOPE 10.1, PBLUC_R_SQUARED 0.388, read-out: LUCIFERASE INFECTION ASSAY - IC50) amounted to 8.48 µM.

As to `CN(C)CCNC(=O)c1cccc(-c2cc(-c3ccc(-c4ccccc4)cc3F)cnc2N)c1`, the IC90 is over 7.26 µM. In addition, the IC50 (PBLUC_HILL_SLOPE 15.7, PBLUC_R_SQUARED 0.255, read-out: LUCIFERASE INFECTION ASSAY - IC50) is over 7.26 µM.

Regarding `CCNC(=O)C1CCCN(Cc2cc(C(F)(F)F)ccc2Cl)CC1` (configuration not stated), the IC90 was 3.4 µM. For the setting “PBLUC_HILL_SLOPE 383, PBLUC_R_SQUARED 0.415, read-out: LUCIFERASE INFECTION ASSAY - IC50”, the IC50 was found to be 3.38 µM.

On to `Cc1nnc(NC(=O)c2ccc3c(c2)SC2=NS(=O)(=O)CCN23)s1`, for which the IC90 was over 10 µM. The IC50 under setting [1] is over 10 µM.

Turning to `CN(Cc1ccc(C(=O)NC2CC2)cc1)c1ncccc1[N+](=O)[O-]`, the IC90 was determined as 6.56 µM. The IC50 (PBLUC_HILL_SLOPE 96.1, PBLUC_R_SQUARED 0.262, read-out: LUCIFERASE INFECTION ASSAY - IC50) was determined as 6.41 µM.

For `COc1ccc(C(C)C)cc1-c1cnc(N)c(-c2ccc(O)cc2)c1`, the IC90 stood at 3.69 µM. The IC50 (HEPG2TOX_HILL_SLOPE 2.7, HEPG2TOX_R_SQUARED 0.932, PBLUC_HILL_SLOPE 18.7, PBLUC_R_SQUARED 0.395, read-out: LUCIFERASE INFECTION ASSAY - IC50) was 3.28 µM.

`Cc1cc(C(C)(C)C)cc(C)c1COC(=O)c1cccnc1`: the IC90 was over 10 µM. For the setting “HEPG2TOX_HILL_SLOPE 2.37, HEPG2TOX_R_SQUARED 0.0156, PBLUC_HILL_SLOPE 8.85, PBLUC_R_SQUARED 0.304, read-out: LUCIFERASE INFECTION ASSAY - IC50”, the IC50 stood at 8.03 µM.

Regarding `Cc1ccccc1N1CCN(Cc2csc(-c3ccccc3Cl)n2)CC1`, the IC90 is 3.67 µM. Moreover, the 50% inhibitory concentration (IC50) (HEPG2TOX_HILL_SLOPE 2.7, HEPG2TOX_R_SQUARED 0.815, PBLUC_HILL_SLOPE 21.2, PBLUC_R_SQUARED 0.497, read-out: LUCIFERASE INFECTION ASSAY - IC50) was 3.3 µM.

For `CC(NCc1ccc(-c2ccccc2)s1)c1ccc(-n2ccnc2)cc1` (configuration not stated), the IC90 was over 10 µM. For the same molecule, the IC50 (PBLUC_HILL_SLOPE 1.59, PBLUC_R_SQUARED 0.529, read-out: LUCIFERASE INFECTION ASSAY - IC50) was 7.08 µM.

For `Cc1ccc(NC(=S)Nc2cccc(C(F)(F)F)c2)c(C)c1`, the IC90 is over 10.2 µM. Besides, the IC50 (PBLUC_HILL_SLOPE 13, PBLUC_R_SQUARED 0.213, read-out: LUCIFERASE INFECTION ASSAY - IC50) came out at 9.86 µM.

In the case of `CCCCOC1(c2ccc(C)cc2)N=C(SCC(=O)NCC(C)C)NN=C1c1ccc(C)cc1` (configuration not stated), the IC90 is over 10 µM. For the same molecule, under “PBLUC_HILL_SLOPE 3.83, PBLUC_R_SQUARED 0.417, read-out: LUCIFERASE INFECTION ASSAY - IC50”, the IC50 came to 6.12 µM.

`Cc1ccc([N+](=O)[O-])cc1S(=O)(=O)Nc1ccccc1C(=O)OCC(=O)NCCC1=CCCCC1`: the IC90 is over 10 µM. The IC50 (HEPG2TOX_HILL_SLOPE 2.79, HEPG2TOX_R_SQUARED 0.956, PBLUC_HILL_SLOPE 19.8, PBLUC_R_SQUARED 0.561, read-out: LUCIFERASE INFECTION ASSAY - IC50) is 9.09 µM.

On to `Cc1c(C(=O)NC2CC2)sc(=O)n1Cc1ccc(-c2ccccc2)cc1`, for which the IC90 was found to be 8.88 µM. In addition, the concentration for half-maximal inhibition (IC50) under setting [1] was 1.9 µM.

As for `Cc1ccc(SCc2ccc(-c3nc4ccccc4s3)cc2)cc1`, the 90% effect concentration (IC90) is over 9.5 µM. Besides, the IC50 (PBLUC_HILL_SLOPE 1.56, PBLUC_R_SQUARED 0.316, read-out: LUCIFERASE INFECTION ASSAY - IC50) came to 4.39 µM.

`COc1ccc(-n2ncc(N3CCC(=O)CC3)c(Cl)c2=O)cc1`: the 90% effect concentration (IC90) is over 9.89 µM. Besides, the IC50 under setting [1] was over 9.89 µM.

Consider `FC(F)(F)Oc1ccc(-c2cnc3ccc(NCc4ccncc4)nn23)cc1`, for which the IC90 is 1.17 µM. The half-maximal inhibitory concentration (IC50) (HEPG2TOX_HILL_SLOPE 0.34, HEPG2TOX_R_SQUARED 0.62, PBLUC_HILL_SLOPE 3.72, PBLUC_R_SQUARED 0.739, read-out: LUCIFERASE INFECTION ASSAY - IC50) came out at 0.649 µM.

In the case of `Nc1nc(SCC(=O)NC2CCCc3ccccc32)nc2sccc12` (configuration not stated), the 90% effect concentration (IC90) is over 10 µM. Further, under “PBLUC_HILL_SLOPE 8.94, PBLUC_R_SQUARED 0.274, read-out: LUCIFERASE INFECTION ASSAY - IC50”, the 50% inhibitory concentration (IC50) came to 9.02 µM.

Consider `Cc1cc(C)c(OCC(=O)N2CCCC2c2nc3ccccc3[nH]2)c(C)c1` (configuration not stated), for which the IC90 was over 10 µM. The IC50 under setting [1] is over 10 µM.

For the molecule `Cc1ccc(-n2c(Sc3ccc([N+](=O)[O-])c4cnccc34)nnc2-c2ccccc2)cc1C`, the IC90 was over 10 µM. For the same molecule, the IC50 (HEPG2TOX_HILL_SLOPE 0.296, HEPG2TOX_R_SQUARED 0.243, PBLUC_HILL_SLOPE 1.34, PBLUC_R_SQUARED 0.0191, read-out: LUCIFERASE INFECTION ASSAY - IC50) is over 10 µM.

In the case of `COc1cc(C(=O)N(C)C(c2ccccc2)c2ccccc2)ccc1OCC(C)C`, the IC90 was over 10 µM. Also, the IC50 (FFLUC_HILL_SLOPE 13.6, FFLUC_R_SQUARED 0.558, HEPG2TOX_HILL_SLOPE 7.8, HEPG2TOX_R_SQUARED 0.217, read-out: LUCIFERASE INFECTION ASSAY - IC50) is over 10 µM.

Turning to `O=C(/C=C/c1cn(-c2ccccc2)nc1-c1ccc(F)cc1)NCC1(N2CCCCC2)CCCCC1`, the IC90 was over 10 µM. Under setting [1], the IC50 was over 10 µM.

In the case of `Cc1ccc(-c2cc(C(=O)N(C)Cc3ccc(C(=O)NC4CC4)cc3)on2)cc1`, the IC90 is over 10 µM. Under setting [1], the IC50 was over 10 µM.

Take `COc1ccc(Cc2nnc(SCC(=O)/C(C#N)=C(\C)N)n2-c2ccc(Oc3ccccc3)cc2)cc1OC`: the IC90 is over 10 µM. Also, the concentration for half-maximal inhibition (IC50) under setting [1] was over 10 µM.

Consider `CCCCNC(=O)Nc1nc(-c2ccccc2)cn1/N=C/c1ccccc1`, for which the IC90 was over 10 µM. Besides, for the setting “HEPG2TOX_HILL_SLOPE 8.27, HEPG2TOX_R_SQUARED 0.417, read-out: LUCIFERASE INFECTION ASSAY - IC50”, the half-maximal inhibitory concentration (IC50) was over 10 µM.

`COc1ccc(C(=O)Nc2ccc(N3CCOCC3)cc2)cn1`: the IC90 is over 10 µM. In addition, under setting [1], the 50% inhibitory concentration (IC50) is over 10 µM.

As to `COc1cccc(N(C)S(=O)(=O)c2cccc3cc(C)cnc23)n1`, the 90% effect concentration (IC90) was 3.82 µM. For the same molecule, the IC50 (PBLUC_HILL_SLOPE 18.8, PBLUC_R_SQUARED 0.316, read-out: LUCIFERASE INFECTION ASSAY - IC50) was determined as 3.4 µM.

For `O=C(NC(c1ccc(F)cc1)c1cccs1)c1cc2ccccc2o1` (configuration not stated), the concentration for an effect of 90% (IC90) is over 10 µM. The IC50 under setting [1] is over 10 µM.

For the molecule `Cc1cc(C(=O)CSc2nnc(C3CC3)o2)c(C)n1-c1ccc2c(c1)CCC2`, the IC90 was over 10 µM. Further, the IC50 (HEPG2TOX_HILL_SLOPE 7.74, HEPG2TOX_R_SQUARED 0.677, read-out: LUCIFERASE INFECTION ASSAY - IC50) is over 10 µM.

Take `Cc1nn(-c2ccccc2)c(C)c1C(=O)ONC(=N)c1ccc(C(C)(C)C)cc1`: the IC90 worked out at 3.03 µM. Where the note is “HEPG2TOX_HILL_SLOPE 14.9, HEPG2TOX_R_SQUARED 0.924, PBLUC_HILL_SLOPE 26.9, PBLUC_R_SQUARED 0.601, read-out: LUCIFERASE INFECTION ASSAY - IC50”, the IC50 is 2.79 µM.

Consider `O=c1c2ccccc2c(=O)c2oc3cc4oc5c(=O)c6ccccc6c(=O)c5[nH]c4cc3[nH]c12`, for which the IC90 was found to be 4 µM. In addition, the IC50 (FFLUC_HILL_SLOPE 12.7, FFLUC_R_SQUARED 0.208, HEPG2TOX_HILL_SLOPE 4.53, HEPG2TOX_R_SQUARED 0.902, PBLUC_HILL_SLOPE 7.46, PBLUC_R_SQUARED 0.34, read-out: LUCIFERASE INFECTION ASSAY - IC50) came out at 2.98 µM.

Consider `CCN(Cc1ccccc1)c1ccc(/C=N/N=C(N)N)cc1`, for which the IC90 came to 5.13 µM. Further, where the note is “HEPG2TOX_HILL_SLOPE 8.25, HEPG2TOX_R_SQUARED 0.944, PBLUC_HILL_SLOPE 2.7, PBLUC_R_SQUARED 0.838, read-out: LUCIFERASE INFECTION ASSAY - IC50”, the IC50 came to 2.27 µM.

On to `CC(C)(C)C1CCc2[nH]c(=O)sc2C1` (configuration not stated), for which the IC90 was found to be 1.31 µM. Further, for the setting “HEPG2TOX_HILL_SLOPE 1.45, HEPG2TOX_R_SQUARED 0.907, PBLUC_HILL_SLOPE 17.6, PBLUC_R_SQUARED 0.512, read-out: LUCIFERASE INFECTION ASSAY - IC50”, the IC50 came to 1.16 µM.

The record behind these values is ChEMBL document CHEMBL4483862, “Open-source discovery of chemical leads for next-generation chemoprotective antimalarials” (2018).
